Series [1] is described as follows: Miscibility / solubility of added substances in self-adhesive silicone gel (SASG). Conditions: liquid in SASG.
A short description of series [2]: Gel consistency: elastic shear modulus G′ by rheometer. The series is classed as physicochemical. The following applies: 4.8% Isopropyl Myristate in gel, vs pure gel (Table 7). From the text: 1. Preparation of Materials for Performance Characterization. • Characterization of rheological properties: for these characterizations, a ˜0.6 g sample of non-crosslinked SACSG should be placed in the measuring cell. In the case of mixtures obtained by the direct mode, a sample of the degassed mixture whose preparation has just been described is used. If Parts A′ and B′ which have been obtained by the indirect method are available, both Parts A′ and B′ are rehomogenised if necessary, equivalent masses of A′ and B′ are weighed and mixed with a spatula; after degassing at 20-50 mbar at room temperature until the bubbles are eliminated (about 10 minutes), a sample of the mixture may be taken and placed in the measuring cell. […]
The consistency of the gels is characterized by their elastic shear modulus, which is measured as follows: • rheometer: Thermofisher RS 6000. • Plan-Plan cell: rotor with 20 mm radius, rotor/stator gap=0.5 mm. • mode: imposed stress=10 Pa. • oscillation frequency: 1 Hz. • temperature: sample installation at 30°. • closing of the cell in two steps: 3 mm/mn until D=1.5 mm, then 0.15 mm/mn until D=0.5 mm. • temperature rise to 70° in 60 s. • measurement G′-G″ at 70° for 4000 s, return to 30°. […]

With `COC(=O)c1ccccc1O` [Methyl Salicylate], the “miscibility with SASG” value in series [1] was 12-15%.
For the molecule `CCCCCCCCCCCCCC(=O)OC(C)C` [Isopropyl Myristate], in series [2], the “drop of G′ value” was found to be 20%.

For the origin of these results see US20220202624A1, “SELF-ADHESIVE SILICONE GEL LOADED WITH MICROPARTICLES, PARTICLES WITH IMPROVED ADHESION” (priority 2019, published 2022).
